According to patent US20180327367A1, “MACROCYCLIC BROAD SPECTRUM ANTIBIOTICS” (priority 2015, published 2018):
Converted amounts (≈) assume the structure as drawn. Like-named read-outs stand apart in the source and are kept apart here.

Key:
[1] = test system: Methicillin Resistant Staphylococcus aureus strain USA 300, NRS384; test: Minimum inhibitory concentration, broth micro-dilution (CLSI), S. aureus; assay type: cell-based; conditions: Staphylococcus aureus, MRSA / NRS 384 / USA300, 22 h, 35° C., 22 hours
How it was run: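 Colonies grown 20 hours at 35° C were suspended in cation-adjusted Mueller Hinton Broth with 0.002% Tween-80. Cells were then added to 2-fold compound dilutions starting at 4 or 0.5 μg/mL, at OD600 0.0005.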

[2] = test system: Escherichia coli ATCC 25922; test: Minimum inhibitory concentration, broth micro-dilution (CLSI), E. coli; assay type: cell-based; conditions: Escherichia coli, ATCC25922, 22 h, 35° C., 22 hours
[3] = molecular target: T1, SpsB (Staphylococcus aureus signal peptidase) (Staphylococcus aureus, UniProt P0A070); test: cell-based; assay type: biochemical; conditions: SpsB IC50, whole-cell S. aureus (USA300 background, overexpressing SpsB) as SpsB source; fluorogenic peptide substrate, kinetic read 30 min
T1 construct: This assay uses a suspension of Staphylococcus aureus cells as a source of SpsB instead of recombinant SpsB protein; endogenous in cells; host or cells: S. aureus, USA300 background, overexpressing SpsB (whole-cell suspension from frozen pellets)
T1 sequence (P0A070 whole entry): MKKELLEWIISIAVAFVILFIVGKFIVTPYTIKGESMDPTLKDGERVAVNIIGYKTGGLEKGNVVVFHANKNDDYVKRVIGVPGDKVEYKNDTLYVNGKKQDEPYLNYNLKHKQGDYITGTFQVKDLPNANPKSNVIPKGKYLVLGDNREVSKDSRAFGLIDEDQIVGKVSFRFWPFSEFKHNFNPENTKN
How it was run: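 Cleavage of an internally quenched (Dabcyl)βAla-KPAKAAE(Edans) peptide, added as 20 μM solution mixed 1:1 with cells, was followed for 30 min at 340/490 nm. SpsB came from a suspension of SpsB-overexpressing USA300 S. aureus in Tween-80-containing PBS buffer. Slopes plotted against 3-fold compound dilutions gave IC50.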

[4] = test system: Escherichia coli MC4100 harboring the IMP4213 (E. coli IMP); test: microbe, parasite or virus in culture; assay type: cell-based; conditions: Escherichia coli, 22 h, read-out: MIC (μg/mL) E. coli IMP, E. coli MC4100 IMP4213, increased outer-membrane permeability; 35° C., 22 hours
How it was run: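 Ten 2-fold dilutions, from 4 μg/mL or from 0.5 μg/mL depending on protocol, are challenged with bacteria at OD600 0.0005 in Tween-80-supplemented cation-adjusted Mueller Hinton Broth. Plates incubate 22 hours at 35° C per CLSI. The E. coli IMP4213 strain has increased outer-membrane permeability.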

[5] = MRSA USA 300 NRS384, read-out: MIC (μg/mL) S. aureus
[6] = E. coli ATCC 25922, read-out: MIC (μg/mL) E. coli

For `Cc1cc(OCC2(C)CCCCC2)ccc1C(=O)N[C@@H](CCN)C(=O)N(C)[C@@H]1C(=O)N[C@@H](C)C(=O)N[C@H](C(=O)NCC#N)Cc2ccc(OCCN)c(c2)-c2cc1ccc2OCCN` [Compound 289], the MIC [1, 5] was 0.031 µg/mL (≈ 0.0351 µM), the MIC [2, 6] was 0.25 µg/mL (≈ 0.283 µM) and the IC50 [3] was 0.93 nM. The MIC [4] was 0.0078 µg/mL (≈ 0.00884 µM).

Work on `CCCCCCCOc1cc(Cl)c(C(=O)N[C@@H](CCN)C(=O)N(C)[C@@H]2C(=O)N[C@@H](C)C(=O)N[C@H](C(=O)NCC#N)Cc3ccc(OCCN)c(c3)-c3cc2ccc3OCCN)c(Cl)c1` [Compound 290] yielded an MIC ([1]; read-out: MIC (μg/mL) S. aureus, MRSA USA 300 NRS384) of 0.063 µg/mL (≈ 0.0681 µM), an MIC ([2]; read-out: MIC (μg/mL) E. coli, E. coli ATCC 25922) of 0.38 µg/mL (≈ 0.411 µM) and an IC50 [3] of 1.2 nM. The MIC [4] was 0.012 µg/mL (≈ 0.013 µM).

`CCCCCCCOc1cc(F)c(C(=O)N[C@@H](CCN)C(=O)N(C)[C@@H]2C(=O)N[C@@H](C)C(=O)N[C@H](C(=O)NCC#N)Cc3ccc(OCCN)c(c3)-c3cc2ccc3OCCN)c(Cl)c1` [Compound 291] showed an MIC [1, 5] of 0.063 µg/mL (≈ 0.0693 µM), an MIC [2, 6] of 0.19 µg/mL (≈ 0.209 µM) and an IC50 [3] of 1.3 nM. The MIC [4] was 0.0078 µg/mL (≈ 0.00859 µM).

`CCCCCCCOc1cc(C)c(C(=O)N[C@@H](CCN)C(=O)N(C)[C@@H]2C(=O)N[C@@H](C)C(=O)N[C@H](C(=O)NCC#N)Cc3ccc(OCCN)c(c3)-c3cc2ccc3OCCN)c(C)c1` [Compound 292] showed an MIC [1, 5] of 0.047 µg/mL (≈ 0.0532 µM), an MIC [2, 6] of 0.38 µg/mL (≈ 0.43 µM) and an IC50 [3] of 1.2 nM. The MIC [4] was 0.0078 µg/mL (≈ 0.00882 µM).

For `CCCCCCCOc1c(F)cc(C(=O)N[C@@H](CCN)C(=O)N(C)[C@@H]2C(=O)N[C@@H](C)C(=O)N[C@H](C(=O)NCC#N)Cc3ccc(OCCN)c(c3)-c3cc2ccc3OCCN)cc1Cl` [Compound 293], the MIC [1, 5] was 0.063 µg/mL (≈ 0.0693 µM), the MIC [2, 6] was 0.38 µg/mL (≈ 0.418 µM) and the IC50 [3] was 1.5 nM. It also gave an MIC [4] of under 0.0039 µg/mL.

Work on `CCCCCCCOc1ccc(C(=O)N[C@@H](CCN)C(=O)N(C)[C@@H]2C(=O)N[C@@H](C)C(=O)N[C@H](C(=O)NCC#N)Cc3ccc(OCCN)c(c3)-c3cc2ccc3OCCN)c2ccccc12` [Compound 295] yielded an MIC [1, 5] of 0.031 µg/mL (≈ 0.0342 µM), an MIC [2, 6] of 0.13 µg/mL (≈ 0.143 µM) and an IC50 [3] of 0.69 nM. It also gave an MIC [4] of under 0.0039 µg/mL.

With `CCCCCCOCc1ccc(C(=O)N[C@@H](CCN)C(=O)N(C)[C@@H]2C(=O)N[C@@H](C)C(=O)N[C@H](C(=O)NCC#N)Cc3ccc(OCCN)c(c3)-c3cc2ccc3OCCN)c(C)c1` [Compound 298] the MIC [1, 5] was 0.063 µg/mL (≈ 0.0724 µM), the MIC [2, 6] was 1 µg/mL (≈ 1.15 µM) and the IC50 [3] was 0.82 nM. It also gave an MIC [4] of 0.0078 µg/mL (≈ 0.00896 µM).

In the case of `CCCCCCCOc1cc(C)c(C(=O)N[C@@H](CCN)C(=O)N(C)[C@@H]2C(=O)N[C@@H](C)C(=O)N[C@H](C(=O)NCC#N)Cc3ccc(OCCN)c(c3)-c3cc2ccc3OCCN)c(Cl)c1` [Compound 299], the MIC [1, 5] is reported as 0.094 µg/mL (≈ 0.104 µM), the MIC [2, 6] is reported as 0.5 µg/mL (≈ 0.553 µM) and the IC50 [3] is reported as 1.1 nM. The MIC [4] was 0.016 µg/mL (≈ 0.0177 µM).

Compound `CCCCc1ccc(Oc2ccc(C(=O)N[C@@H](CCN)C(=O)N(C)[C@@H]3C(=O)N[C@@H](C)C(=O)N[C@H](C(=O)NCC#N)Cc4ccc(OCCN)c(c4)-c4cc3ccc4OCCN)c(C)c2)cc1` [Compound 303] has an MIC [1, 5] of 0.047 µg/mL (≈ 0.052 µM), an MIC [2, 6] of 0.19 µg/mL (≈ 0.21 µM) and an IC50 [3] of 0.93 nM. It also gave an MIC [4] of 0.012 µg/mL (≈ 0.0133 µM).

In the case of `Cc1nc(Oc2ccc(CC(C)C)cc2)ncc1C(=O)N[C@@H](CCN)C(=O)N(C)[C@@H]1C(=O)N[C@@H](C)C(=O)N[C@H](C(=O)NCC#N)Cc2ccc(OCCN)c(c2)-c2cc1ccc2OCCN` [Compound 304], the MIC [1, 5] is reported as 0.047 µg/mL (≈ 0.0519 µM), the MIC [2, 6] is reported as 1 µg/mL (≈ 1.1 µM) and the IC50 [3] is reported as 0.68 nM. The MIC [4] was 0.016 µg/mL (≈ 0.0177 µM).

For `Cc1nc(Oc2ccc(C(C)(C)C)cc2)ncc1C(=O)N[C@@H](CCN)C(=O)N(C)[C@@H]1C(=O)N[C@@H](C)C(=O)N[C@H](C(=O)NCC#N)Cc2ccc(OCCN)c(c2)-c2cc1ccc2OCCN` [Compound 305], the MIC [1, 5] was 0.063 µg/mL (≈ 0.0695 µM), the MIC [2, 6] was 1 µg/mL (≈ 1.1 µM) and the IC50 [3] was 0.73 nM. The MIC [4] was 0.016 µg/mL (≈ 0.0177 µM).

In the case of `CCCCc1ccc(Oc2ncc(C(=O)N[C@@H](CCN)C(=O)N(C)[C@@H]3C(=O)N[C@@H](C)C(=O)N[C@H](C(=O)NCC#N)Cc4ccc(OCCN)c(c4)-c4cc3ccc4OCCN)c(C)n2)cc1` [Compound 306], the MIC [1, 5] is reported as 0.031 µg/mL (≈ 0.0342 µM), the MIC [2, 6] is reported as 1 µg/mL (≈ 1.1 µM) and the IC50 [3] is reported as 0.69 nM. It also gave an MIC [4] of 0.0078 µg/mL (≈ 0.00861 µM).
